Series [1] is described as follows: Phase 2 study of exemestane with and without entinostat: safety and tolerability (adverse events). In kind it is in vivo, human. How it is done:
(§1) Secondary Outcome Measures are to compare objective response rate (ORR) and clinical benefit rate (CBR), and to evaluate the safety and tolerability of entinostat in combination with exemestane as measured by adverse events and laboratory safety parameters.
Safety was assessed by adverse events (AEs), using the National Cancer Institute Common Terminology Criteria for Adverse Events, version 3.0, electrocardiograms, hematology and serum chemistries, ECOG performance status, and vital signs.
Safety was assessed by an independent Data Safety Monitoring Board. All participating investigators and patients remain blinded to the assigned study treatment, as post-treatment follow-up for OS is continuing.

Series [2] is described as follows: Plasma entinostat concentration at acetylation sampling time points. In kind it is in vivo, human. The note with it: D8 and D15 time points used for acetylation evaluation; generally at or below the assay detection limit.
The conditions of series [3]: in vivo; cited from earlier work.
Series [4] deals with locally recurrent or metastatic estrogen receptor-positive breast cancer. Put plainly: Phase 2 randomized, double-blind study of exemestane with and without entinostat (ENCORE-301): efficacy. In kind it is in vivo, human. The following applies: for median progression-free survival (PFS) / overall survival: intent-to-treat population; for overall survival: median follow-up of 18 months.
Excerpt: as §1
The primary endpoint of the study was progression-free survival. Other endpoints included objective response rate (ORR), clinical benefit rate (CBR), overall survival (OS) and safety and tolerability. All patients had received prior hormonal therapy (1 prior line 42%; >1 prior line 58%), and 33% had received prior chemotherapy in the advanced breast cancer setting.
One hundred thirty (130) patients were enrolled between June 2008 and July 2010 at 38 sites in North America, Central Europe, and Russia. All patients provided written informed consent. […] Randomization was stratified by 1) prior NSAI treatment setting (adjuvant/metastatic); 2) metastases in bone only (yes/no); and 3) geographic region (North America/Central Europe and Russia). The randomization schedule was prepared and maintained by an independent statistical service provider. The protocol allowed for enrollment of approximately 20% of patients with non-measurable disease.
Postmenopausal women with ER+BC currently experiencing disease relapse or progression while receiving a NSAI were eligible. Patients either had 1) relapsed after adjuvant NSAI treatment administered for at least 12 months or 2) progressed after NSAI treatment administered for at least 3 months in the metastatic/advanced setting. One prior line of chemotherapy in the metastatic setting was permitted if given before the most recent NSAI. Within 4 weeks prior to starting study treatment, patients must have had at least 1 measurable lesion (≥20 mm by conventional techniques or ≥10 mm by spiral computed tomography [CT] scan), or with bone only metastases, a positive bone scan confirmed by magnetic resonance imaging (MRI) or positron emission tomography (PET)-CT. Additional requirements included, an Eastern Cooperative Oncology Group (ECOG) performance status of 0 or 1; adequate hematologic parameters; and creatinine, aspartate transaminase, and alanine transaminase <2.5 times the upper limit of normal. Patients with prior fulvestrant, exemestane, entinostat, or any other HDACi were excluded.
Treatment cycles were 28 days in length. Patients were evaluated on Day (D) 1, D8, and D15 during Cycle (C) 1 and on D1 of all subsequent cycles. Peripheral blood samples were taken in a subset of patients pre- and post-dosing on D1, 8, or 15 of C1. Patient/disease response assessments were performed on D22 of C2 and every other cycle thereafter. After completing study treatment, patients entered into post-treatment follow-up for evaluation of overall survival and subsequent therapies. Patients were to be followed until death, withdrawal of consent, or study closure by the sponsor.
Disease was evaluated using the Response Evaluation Criteria in Solid Tumors (RECIST), version 1.0. Contrast-enhanced CT scans were obtained at baseline, every other cycle for 12 months, and every third cycle thereafter. PD also was assessed by bone scan and clinical symptoms, as appropriate.
The primary endpoint was PFS, defined as the number of months from randomization to documented PD or death due to any cause. Secondary endpoints included overall response (OR; complete response [CR]+partial response [PR]) and clinical benefit rates (CBR; OR+stable disease [SD] for ≥6 months). Overall Survival (OS) was an exploratory endpoint.
PFS was summarized descriptively using the Kaplan-Meier method and reported based on 116 progression events as of March 2012. The HR was estimated from a stratified Cox proportional hazards model, with placebo serving as the reference in the calculation. The primary inferential comparison between groups was made using the log-rank test, stratified by the 3 randomization factors. For patients who died before documentation of PD, death date was used as the PD date. […]

Series [5] has the same test system. The experiment in a line: PFS by change in protein lysine acetylation in PBMCs (biomarker subset of the Phase 2 study). In kind it is in vivo, human. How it is done: The primary endpoint was progression-free survival (PFS).
Protein lysine acetylation was measured by multi-parameter flow cytometry in peripheral blood mononuclear cells (PBMCs; CD19+ B cells, CD3+ T cells, and CD14+ monocytes) collected pre and post-treatment on D1, D8, and D15 of C1 to explore the association with PFS.
The association of PFS with degree of change in protein lysine acetylation from baseline in PBMCs was evaluated as an exploratory, post-hoc analysis in a subset of patients using the Cox proportional hazard model. Analyses in all 3 cell types (B cells, T cells, monocytes) was performed for consistency of results and to aid in selection of optimal cell type for analysis in future studies.
Baseline characteristics were consistent with the overall study population (FIG. 17). Hyperacetylation in EE patients was associated with a prolonged median PFS consistent across all cell types tested (FIG. 18): 8.5 versus 2.7 months for low acetylators (HR=0.32, 95% CI 0.13, 0.79) (B cells); 6.6 versus 3.6 months for low acetylators (HR=0.44, 95% CI 0.18, 1.08) (T cells); and 6.2 versus 3.6 months for low acetylators (HR=0.50, 95% CI 0.21, 1.20) (monocytes). […] The percent change in acetylation from baseline was determined based upon the last sample obtained. The degree of change in acetylation was then dichotomized into “high” (i.e., above the median or “hyperacetylators”) and “low” (i.e., below the median) subgroups using a non-model based approach: patients with a change from baseline that was greater than or equal to the 50th percentile (median) of the overall distribution were assigned to the “high” group; patients with a change less than the 50th percentile were assigned to the “low” group. The cut-point for the analysis (50th percentile) was determined a priori, but was not based on findings from earlier studies.
Percent change is calculated and related to progression free survival (PFS) outcome data. Hyperacetylation independent of treatment arm is defined as a percent change increase above the calculated median percent change for each cell type.

The test system of series [6] is advanced BC demonstrating PD or recurrence following a NSAI. The following applies: reported by Chia, et al; cited from earlier work.
Where [7] appears, read: listed as exemestane plus placebo.

Several values for one entry are separate records, joined by “and”; a condition that tells them apart may be missing. Identical values can stand only once.

Consider `Nc1ccccc1NC(=O)c1ccc(CNC(=O)OCc2cccnc2)cc1` [entinostat, N-(2-aminophenyl)-4-[N-(pyridine-3-yl)methoxycarbonylamino-methyl]-benzamide], for which the “neutropenia cases attributed to entinostat” value in series [1] (EE group, 13 of 19 cases) is 68%. For the same molecule, in series [1] (Phase 2 clinical trial), the “tolerability / safety profile” value is on record as “acceptable safety profile”. For the same molecule, the plasma entinostat concentration in series [2] is listed as under 0.5 ng/mL. The half-life entry in series [3] is “about 100 hours”.
For `C=C1C[C@@H]2[C@H](CC[C@]3(C)C(=O)CC[C@@H]23)[C@@]2(C)C=CC(=O)C=C12` [EP, exemestane], in series [4] (23-month follow-up), the median overall survival turned out to be 19.8 months. In addition, in series [4] (Example 1c analysis), the incidence of death turned out to be 65%. Further, the “median OS” value in series [4] (Example 1c analysis, ITT population) was 19.8 months. The “clinical benefit rate (CBR; OR+SD for >=6 months)” value in series [4] (ITT population) amounted to 25.8%. Also, in series [4] (ITT population, RECIST 1.0), the “overall response (OR; CR+PR)” value is reported as 4.6%. In series [4], the “median progression-free survival (PFS)” value was 2.3 months and 2.27 months; the overall survival is given as 20.3 months. In series [4] (listed as exemestane alone), the “median progression-free survival (PFS)” value was 2.3 months. Also, in series [4] (setting [7]), the “median progression-free survival (PFS)” value was 2.27 months and 2.3 months; the overall survival is 20.33 months. The “median progression-free survival (PFS)” value in series [4] (listed as exemestane+placebo) was found to be 2.3 months. The “serious AE rate” value in series [1] (Example 1a) came to 12%. Besides, the “incidence of serious AEs” value in series [1] (Example 1c, Safety Population) is given as 12%. In addition, in series [1] (Safety Population), the “AEs leading to dose modification” value is 6%, the “AEs leading to study discontinuation” value stood at 2%, the “G4 AEs” value stood at 3% and the “Grade (G) 3 AEs” value is 23%. In series [1] (Safety Population, irrespective of study drug relationship), the “rate of AEs” value was 85%. Also, in series [5] (B cells), the “median PFS, high acetylators (hyperacetylation)” value (“median PFS, high acetylators” for short) was 1.9 months and 1.92 months; the “median PFS, low acetylators” value turned out to be 1.8 months. The “median PFS, high acetylators” value in series [5] (T cells) is 1.77 months. Moreover, in series [5] (monocytes), the “median PFS, high acetylators” value worked out at 1.87 months. The “median PFS” value in series [6] is recorded as 3.7 months.

These data come from patent US10226472B2, “Methods for the treatment of breast cancer” (SYNDAX PHARMACEUTICALS, INC., priority 2011, dated 2019).
